From ChEMBL document CHEMBL4725298, “Exploration of piperazine-derived thioureas as antibacterial and anti-inflammatory agents. In vitro evaluation against clinical isolates of colistin-resistant Acinetobacter baumannii” (Bioorg Med Chem Lett, 2020)
Values after ≈ are worked out from the molar mass of the structure shown. Active and inactive are the calls of the source. No cut-off for these calls is given here.

tested on: Acinetobacter baumannii; experiment: Antibacterial activity against Acinetobacter baumannii 21R assessed as fractional inhibitory concentration incubated for 24 hrs by standard broth microdilution method relative to control; type: functional; details: not given

Compound	FIC
CC(C)(C)OC(=O)N1CCN(C(=S)Nc2cc(C(F)(F)F)cc(C(F)(F)F)c2)CC1	0.12
COLISTIN	0.38

tested on: Acinetobacter baumannii; experiment: Potentiation of colistin-induced antibacterial activity against Acinetobacter baumannii 21R assessed as fold reduction in colistin MIC incubated for 24 hrs by standard broth microdilution method; type: functional; details: not given

Compound	fold change (FC)
CC(C)(C)OC(=O)N1CCN(C(=S)Nc2cc(C(F)(F)F)cc(C(F)(F)F)c2)CC1	4

tested on: Acinetobacter baumannii; experiment: Antibacterial activity against colistin-resistant Acinetobacter baumannii 24 assessed as reduction in bacterial growth incubated for 24 hrs by standard broth microdilution method; type: functional; details: not given

Compound	MIC [µM]	Activity
CC1CN(C(=O)CC2CCCCC2)CCN1C(=S)Nc1cc(C(F)(F)F)cc(C(F)(F)F)c1 (stereo unspecified)	25 (≈ 12.4 µg/mL)	
CC1CN(C(=O)CC(C)(C)C)CCN1C(=S)Nc1cc(C(F)(F)F)cc(C(F)(F)F)c1 (racemic)	6.25 (≈ 2.93 µg/mL)	
CC1CN(C(=O)CC2CCCCC2)CCN1C(=S)Nc1ccc(C#N)cc1 (stereo unspecified)		inactive
CC(C)(C)CC(=O)N1CCN(C(=S)Nc2cc(C(F)(F)F)cc(C(F)(F)F)c2)C(c2ccccc2)C1 (stereo unspecified)	3.12 (≈ 1.66 µg/mL)	
CC1CN(C(=O)CC2CCCCC2)CCN1C(=S)Nc1ccc([N+](=O)[O-])cc1 (stereo unspecified)		inactive
COLISTIN	7	
C[C@@H]1CN(C(=O)CC(C)(C)C)CCN1C(=S)Nc1cc(C(F)(F)F)cc(C(F)(F)F)c1	6.25 (≈ 2.93 µg/mL)	
CC1CN(C(=O)Cc2ccccc2)CCN1C(=S)Nc1cc(C(F)(F)F)cc(C(F)(F)F)c1 (stereo unspecified)	6.25 (≈ 3.06 µg/mL)	

tested on: Acinetobacter baumannii; experiment: Antibacterial activity against colistin-resistant Acinetobacter baumannii 14 assessed as reduction in bacterial growth incubated for 24 hrs by standard broth microdilution method; type: functional; details: not given

Compound	MIC [µM]	Activity
CC1CN(C(=O)CC2CCCCC2)CCN1C(=S)Nc1cc(C(F)(F)F)cc(C(F)(F)F)c1 (stereo unspecified)	50 (≈ 24.8 µg/mL)	
CC1CN(C(=O)CC(C)(C)C)CCN1C(=S)Nc1cc(C(F)(F)F)cc(C(F)(F)F)c1 (racemic)	50 (≈ 23.5 µg/mL)	
CC1CN(C(=O)CC2CCCCC2)CCN1C(=S)Nc1ccc(C#N)cc1 (stereo unspecified)		inactive
CC(C)(C)OC(=O)N1CCN(C(=S)Nc2cc(C(F)(F)F)cc(C(F)(F)F)c2)CC1	6.25 (≈ 2.86 µg/mL)	
CC1CN(C(=O)CC2CCCCC2)CCN1C(=S)Nc1ccc([N+](=O)[O-])cc1 (stereo unspecified)		inactive
COLISTIN	56	
CC1CN(C(=O)Cc2ccccc2)CCN1C(=S)Nc1cc(C(F)(F)F)cc(C(F)(F)F)c1 (stereo unspecified)	3.12 (≈ 1.53 µg/mL)	

tested on: RAW264.7; experiment: Antiinflammatory activity against mouse RAW264.7 cells assessed as reduction in LPS-induced NO production at 1 to 10 uM incubated for 24 hrs by Griess assay relative to control; type: functional; details: dose microM 1-10

Compound	inhibition (INH)
CC1CN(C(=O)CC2CCCCC2)CCN1C(=S)Nc1cc(C(F)(F)F)cc(C(F)(F)F)c1 (stereo unspecified)	40%
CC1CN(C(=O)CC(C)(C)C)CCN1C(=S)Nc1cc(C(F)(F)F)cc(C(F)(F)F)c1 (racemic)	40%
CC(C)(C)CC(=O)N1CCN(C(=S)Nc2cc(C(F)(F)F)cc(C(F)(F)F)c2)C(c2ccccc2)C1 (stereo unspecified)	>=80%

tested on: Acinetobacter baumannii; experiment: Synergistic antibacterial activity against Acinetobacter baumannii 21R assessed as fractional inhibitory concentration index incubated for 24 hrs in presence of colistin by standard broth microdilution method; type: functional; details: not given

Compound	fractional inhibitory concentration index (FICI)
CC(C)(C)OC(=O)N1CCN(C(=S)Nc2cc(C(F)(F)F)cc(C(F)(F)F)c2)CC1	0.5

tested on: Acinetobacter baumannii; experiment: Synergistic antibacterial activity against Acinetobacter baumannii 22P assessed as fractional inhibitory concentration index incubated for 24 hrs in presence of colistin by standard broth microdilution method; type: functional; details: not given

Compound	fractional inhibitory concentration index (FICI)
CC(C)(C)OC(=O)N1CCN(C(=S)Nc2cc(C(F)(F)F)cc(C(F)(F)F)c2)CC1	0.37

tested on: Acinetobacter baumannii; experiment: Antibacterial activity against colistin-resistant Acinetobacter baumannii 17 assessed as reduction in bacterial growth incubated for 24 hrs by standard broth microdilution method; type: functional; details: not given

Compound	Activity	MIC [µM]
CC1CN(C(=O)CC2CCCCC2)CCN1C(=S)Nc1ccc(C#N)cc1 (stereo unspecified)	inactive	
CC(C)(C)OC(=O)N1CCN(C(=S)Nc2cc(C(F)(F)F)cc(C(F)(F)F)c2)CC1		6.25 (≈ 2.86 µg/mL)
CC1CN(C(=O)CC2CCCCC2)CCN1C(=S)Nc1ccc([N+](=O)[O-])cc1 (stereo unspecified)	inactive	
COLISTIN		> 111
CC1CN(C(=O)Cc2ccccc2)CCN1C(=S)Nc1cc(C(F)(F)F)cc(C(F)(F)F)c1 (stereo unspecified)		3.12 (≈ 1.53 µg/mL)

tested on: Acinetobacter baumannii; experiment: Antibacterial activity against colistin-resistant Acinetobacter baumannii 22P assessed as reduction in bacterial growth incubated for 24 hrs by standard broth microdilution method; type: functional; details: not given

Compound	MIC [µM]	Activity
CC1CN(C(=O)CC2CCCCC2)CCN1C(=S)Nc1cc(C(F)(F)F)cc(C(F)(F)F)c1 (stereo unspecified)	1.56 (≈ 0.773 µg/mL)	
CC1CN(C(=O)CC(C)(C)C)CCN1C(=S)Nc1cc(C(F)(F)F)cc(C(F)(F)F)c1 (racemic)	6.25 (≈ 2.93 µg/mL)	
CC1CN(C(=O)CC2CCCCC2)CCN1C(=S)Nc1ccc(C#N)cc1 (stereo unspecified)		inactive
CC(C)(C)CC(=O)N1CCN(C(=S)Nc2cc(C(F)(F)F)cc(C(F)(F)F)c2)C(c2ccccc2)C1 (stereo unspecified)	3.12 (≈ 1.66 µg/mL)	
CC(C)(C)OC(=O)N1CCN(C(=S)Nc2cc(C(F)(F)F)cc(C(F)(F)F)c2)CC1	12.5 (≈ 5.72 µg/mL)	
CC1CN(C(=O)CC2CCCCC2)CCN1C(=S)Nc1ccc([N+](=O)[O-])cc1 (stereo unspecified)	12.5 (≈ 5.06 µg/mL)	
COLISTIN	3540	
C[C@@H]1CN(C(=O)CC(C)(C)C)CCN1C(=S)Nc1cc(C(F)(F)F)cc(C(F)(F)F)c1	12.5 (≈ 5.87 µg/mL)	

tested on: Acinetobacter baumannii; experiment: Antibacterial activity against colistin-resistant Acinetobacter baumannii 21R assessed as reduction in bacterial growth incubated for 24 hrs by standard broth microdilution method; type: functional; details: not given

Compound	MIC [µM]	Activity
CC1CN(C(=O)CC2CCCCC2)CCN1C(=S)Nc1cc(C(F)(F)F)cc(C(F)(F)F)c1 (stereo unspecified)	3.12 (≈ 1.55 µg/mL)	
CC1CN(C(=O)CC(C)(C)C)CCN1C(=S)Nc1cc(C(F)(F)F)cc(C(F)(F)F)c1 (racemic)	6.25 (≈ 2.93 µg/mL)	
CC1CN(C(=O)CC2CCCCC2)CCN1C(=S)Nc1ccc(C#N)cc1 (stereo unspecified)		inactive
CC(C)(C)CC(=O)N1CCN(C(=S)Nc2cc(C(F)(F)F)cc(C(F)(F)F)c2)C(c2ccccc2)C1 (stereo unspecified)	3.12 (≈ 1.66 µg/mL)	
CC(C)(C)OC(=O)N1CCN(C(=S)Nc2cc(C(F)(F)F)cc(C(F)(F)F)c2)CC1	6.25 (≈ 2.86 µg/mL)	
CC1CN(C(=O)CC2CCCCC2)CCN1C(=S)Nc1ccc([N+](=O)[O-])cc1 (stereo unspecified)	25 (≈ 10.1 µg/mL)	
COLISTIN	1770	
C[C@@H]1CN(C(=O)CC(C)(C)C)CCN1C(=S)Nc1cc(C(F)(F)F)cc(C(F)(F)F)c1	6.25 (≈ 2.93 µg/mL)	
CC1CN(C(=O)Cc2ccccc2)CCN1C(=S)Nc1cc(C(F)(F)F)cc(C(F)(F)F)c1 (stereo unspecified)	3.12 (≈ 1.53 µg/mL)	

tested on: RAW264.7; experiment: Antiinflammatory activity against mouse RAW264.7 cells assessed as reduction in LPS-induced NO production at 50 uM incubated for 24 hrs by Griess assay; type: functional, cell-based; details: not given

Compound	inhibition
CC1CN(C(=O)CC2CCCCC2)CCN1C(=S)Nc1cc(C(F)(F)F)cc(C(F)(F)F)c1 (stereo unspecified)	Active
CC1CN(C(=O)CC(C)(C)C)CCN1C(=S)Nc1cc(C(F)(F)F)cc(C(F)(F)F)c1 (racemic)	Active
CC1CN(C(=O)CC2CCCCC2)CCN1C(=S)Nc1ccc(C#N)cc1 (stereo unspecified)	Active
CC(C)(C)CC(=O)N1CCN(C(=S)Nc2cc(C(F)(F)F)cc(C(F)(F)F)c2)C(c2ccccc2)C1 (stereo unspecified)	Active
CC(C)(C)OC(=O)N1CCN(C(=S)Nc2cc(C(F)(F)F)cc(C(F)(F)F)c2)CC1	Active
CC1CN(C(=O)CC2CCCCC2)CCN1C(=S)Nc1ccc([N+](=O)[O-])cc1 (stereo unspecified)	Active
CC1CN(C(=O)Cc2ccccc2)CCN1C(=S)Nc1cc(C(F)(F)F)cc(C(F)(F)F)c1 (stereo unspecified)	Active

tested on: Acinetobacter baumannii; experiment: Bactericidal activity against colistin-resistant Acinetobacter baumannii 22P at 12.5 to 50 uM incubated upto 24 hrs by time kill curve based analysis; type: functional, organism-based; details: dose microM 12.5-50, time hrs <=24

Compound	Activity
CC(C)(C)OC(=O)N1CCN(C(=S)Nc2cc(C(F)(F)F)cc(C(F)(F)F)c2)CC1	inactive

tested on: not listed separately; experiment: Cytotoxicity against human A549 cells; type: cell-based; details: not given

Compound	CC50 [µM]
CC1CN(C(=O)CC2CCCCC2)CCN1C(=S)Nc1cc(C(F)(F)F)cc(C(F)(F)F)c1 (stereo unspecified)	82
CC1CN(C(=O)CC(C)(C)C)CCN1C(=S)Nc1cc(C(F)(F)F)cc(C(F)(F)F)c1 (racemic)	73.2
CC(C)(C)OC(=O)N1CCN(C(=S)Nc2cc(C(F)(F)F)cc(C(F)(F)F)c2)CC1	109
C[C@@H]1CN(C(=O)CC(C)(C)C)CCN1C(=S)Nc1cc(C(F)(F)F)cc(C(F)(F)F)c1	162
CC1CN(C(=O)Cc2ccccc2)CCN1C(=S)Nc1cc(C(F)(F)F)cc(C(F)(F)F)c1 (stereo unspecified)	130

tested on: Acinetobacter baumannii; experiment: Potentiation of colistin-induced antibacterial activity against Acinetobacter baumannii 22P assessed as fold reduction in colistin MIC incubated for 24 hrs by standard broth microdilution method; type: functional; details: not given

Compound	fold change (FC)
CC(C)(C)OC(=O)N1CCN(C(=S)Nc2cc(C(F)(F)F)cc(C(F)(F)F)c2)CC1	4

tested on: Acinetobacter baumannii; experiment: Antibacterial activity against Acinetobacter baumannii 21R assessed as reduction in bacterial growth in presence of colistin incubated for 24 hrs by standard broth microdilution method; type: functional; details: not given

Compound	MIC [µM]
CC(C)(C)OC(=O)N1CCN(C(=S)Nc2cc(C(F)(F)F)cc(C(F)(F)F)c2)CC1	0.78

tested on: Acinetobacter baumannii; experiment: Antibacterial activity against Acinetobacter baumannii 22P assessed as reduction in bacterial growth in presence of colistin incubated for 24 hrs by standard broth microdilution method; type: functional; details: not given

Compound	MIC [µM]
CC(C)(C)OC(=O)N1CCN(C(=S)Nc2cc(C(F)(F)F)cc(C(F)(F)F)c2)CC1	1.56

tested on: Acinetobacter baumannii; experiment: Bactericidal activity against colistin-resistant Acinetobacter baumannii 21R at 4 times of MIC incubated for 4 hrs by time kill curve based analysis; type: functional, organism-based; details: not given

Compound	Activity
CC(C)(C)OC(=O)N1CCN(C(=S)Nc2cc(C(F)(F)F)cc(C(F)(F)F)c2)CC1	Active

tested on: Acinetobacter baumannii; experiment: Antibacterial activity against colistin-resistant Acinetobacter baumannii 11 assessed as reduction in bacterial growth incubated for 24 hrs by standard broth microdilution method; type: functional; details: not given

Compound	Activity	MIC [µM]
CC1CN(C(=O)CC2CCCCC2)CCN1C(=S)Nc1ccc(C#N)cc1 (stereo unspecified)	inactive	
CC(C)(C)CC(=O)N1CCN(C(=S)Nc2cc(C(F)(F)F)cc(C(F)(F)F)c2)C(c2ccccc2)C1 (stereo unspecified)		3.12 (≈ 1.66 µg/mL)
CC(C)(C)OC(=O)N1CCN(C(=S)Nc2cc(C(F)(F)F)cc(C(F)(F)F)c2)CC1		12.5 (≈ 5.72 µg/mL)
CC1CN(C(=O)CC2CCCCC2)CCN1C(=S)Nc1ccc([N+](=O)[O-])cc1 (stereo unspecified)	inactive	
COLISTIN		14
CC1CN(C(=O)Cc2ccccc2)CCN1C(=S)Nc1cc(C(F)(F)F)cc(C(F)(F)F)c1 (stereo unspecified)		6.25 (≈ 3.06 µg/mL)

tested on: Acinetobacter baumannii; experiment: Antibacterial activity against Acinetobacter baumannii 22P assessed as fractional inhibitory concentration incubated for 24 hrs by standard broth microdilution method relative to control; type: functional; details: not given

Compound	FIC
CC(C)(C)OC(=O)N1CCN(C(=S)Nc2cc(C(F)(F)F)cc(C(F)(F)F)c2)CC1	0.12
COLISTIN	0.25

tested on: Acinetobacter baumannii; experiment: Bactericidal activity against colistin-resistant Acinetobacter baumannii 21R assessed as log10 reduction of bacterial colony forming unit at 2 times of MIC incubated for 4 hrs by time kill curve based analysis; type: functional; details: not given

Compound	Activity [log10CFU/ml]
CC(C)(C)OC(=O)N1CCN(C(=S)Nc2cc(C(F)(F)F)cc(C(F)(F)F)c2)CC1	3
